From patent publication US8658604B2, “Template-fixed beta-hairpin peptidomimetics with protease inhibitory activity” (Polyphor Ltd, priority 2005, dated 2014)
Where a SMILES comes first, the peptide text is derived from it.

Experiments:
[1] = target: Urokinase from human urine (Homo sapiens, UniProt P00749); assay: Enzymatic assay, urokinase
[2] = system: human red blood cells (hRBC); assay: Hemolysis
Method: The peptides were tested for their hemolytic activity against human red blood cells (hRBC). Fresh hRBC were washed three times with phosphate buffered saline (PBS) by centrifugation for 10 min at 2000×g. Peptides at a concentration of 100 μM were incubated with 20% v/v hRBC for 1 hour at 37° C. The final erythrocyte concentration was approximately 0.9×10^9 cells per ml. A value of 0% and, respectively, 100% cell lysis was determined by incubation of the hRBC in the presence of PBS alone and, respectively, 0.1% Triton X-100 in H2O. […] The 100% lysis value (OD540H20) gave an OD540 of approximately 1.3-1.8. Percent hemolysis was calculated as follows: (OD540peptide/OD540H20)×100%.

[3] = system: Tryptase, from human lung; assay: Enzymatic assay, tryptase; conditions: at 100 μM
[4] = target: T1, CathepsinG, from human neutrophils (Homo sapiens, UniProt P08311); assay: Enzymatic assay, cathepsin G; conditions: Cathepsin G IC50
T1 sequence (P08311 21-244): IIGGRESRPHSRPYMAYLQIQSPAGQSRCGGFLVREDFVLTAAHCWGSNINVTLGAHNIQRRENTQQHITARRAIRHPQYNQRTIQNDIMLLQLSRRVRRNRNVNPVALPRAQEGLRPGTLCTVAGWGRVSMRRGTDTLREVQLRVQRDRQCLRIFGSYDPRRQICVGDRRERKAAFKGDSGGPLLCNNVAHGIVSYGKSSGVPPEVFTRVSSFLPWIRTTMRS

HELA cells (Acc57) = assay: Cytotoxicity assay (MTT reduction), HELA cells; format: cell-based; conditions: Hela cells
In short: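 HeLa cells were grown for 24 h, then exposed to peptides at 12.5, 25 and 50 μM in triplicate for 48 h at 37 °C. MTT reduction was read at 595 nm and growth % calculated relative to time-zero wells. LC50 interpolated by linear trend at −50% growth, GI50 at 50%.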

Compound: CC[C@H](C)[C@@H]1NC(=O)[C@@H]2CCCN2C(=O)[C@@H]2CCCN2C(=O)[C@H](CC(=O)O)NC(=O)[C@H](CO)NC(=O)[C@H](CCCCN)NC(=O)[C@H]([C@@H](C)O)NC(=O)[C@@H]2CSSC[C@H](NC1=O)C(=O)N[C@@H](CC(N)=O)C(=O)N1CCC[C@@H]1C(=O)N1CCC[C@H]1C(=O)N[C@@H](C1CCCCC1)C(=O)N2 [Ex. 37] (HELM PEPTIDE1{[O=C([C@@H](N[*:1])C1CCCCC1)[*:2]].C.T.K.S.D.P.P.I.C.N.[dP].P}$PEPTIDE1,PEPTIDE1,2:R3-10:R3|PEPTIDE1,PEPTIDE1,1:R1-13:R2$$$V2.0)
- Urokinase at 100 μM % [1]: 5%
- Hemolysis at 100 μM % [2]: 0.1%
- Tryptase at 100 μM % [3]: 56%
- IC50 [4]: 0.035 µM
- Cytotoxicity LC50/GI50 Hela cells (HELA cells (Acc57)): 92 µM

Compound: CCCC[C@@H]1NC(=O)[C@@H]2CCCN2C(=O)[C@H]2CCCN2C(=O)[C@H]([C@@H](C)O)NC(=O)[C@@H]2CSSC[C@H](NC1=O)C(=O)N[C@@H]([C@@H](C)O)C(=O)N[C@@H](CCCCN)C(=O)N[C@@H](CO)C(=O)N[C@@H](CC(=O)O)C(=O)N1CCC[C@H]1C(=O)N1CCC[C@H]1C(=O)N[C@@H]([C@@H](C)CC)C(=O)N2 [Ex. 42] (HELM PEPTIDE1{[Nle].C.T.K.S.D.P.P.I.C.T.[dP].P}$PEPTIDE1,PEPTIDE1,2:R3-10:R3|PEPTIDE1,PEPTIDE1,1:R1-13:R2$$$V2.0)
- Urokinase at 100 μM % [1]: 7%
- Hemolysis at 100 μM % [2]: 0%
- Tryptase at 100 μM % [3]: 0%
- IC50 [4]: 0.046 µM
- Cytotoxicity LC50/GI50 Hela cells (HELA cells (Acc57)): 87 µM

Compound: C[C@@H](O)[C@@H]1NC(=O)[C@@H]2CSSC[C@H](NC(=O)[C@H](Cc3ccc(O)cc3)NC(=O)[C@@H]3CCCN3C(=O)[C@@H]3CCCN3C(=O)[C@H](CC(=O)O)NC(=O)[C@H](CO)NC(=O)[C@H](CCCCN)NC1=O)C(=O)N[C@@H](Cc1ccc(O)cc1)C(=O)N1CCC[C@@H]1C(=O)N1CCC[C@H]1C(=O)N[C@@H](C1CCCCC1)C(=O)N2 [Ex. 65] (HELM PEPTIDE1{[O=C([C@@H](N[*:1])C1CCCCC1)[*:2]].C.T.K.S.D.P.P.Y.C.Y.[dP].P}$PEPTIDE1,PEPTIDE1,2:R3-10:R3|PEPTIDE1,PEPTIDE1,1:R1-13:R2$$$V2.0)
- Urokinase at 100 μM % [1]: 1%
- Hemolysis at 100 μM % [2]: 0%
- Tryptase at 100 μM % [3]: 57%
- IC50 [4]: 0.047 µM
- Cytotoxicity LC50/GI50 Hela cells (HELA cells (Acc57)): 84 µM
